Measurements published in article PMC3958311 (EMBO Molecular Medicine, 2014).
In brackets after ≈: the same amount, converted by molar mass. Like-named read-outs stand apart in the source and are kept apart here.

Key:
M. avium ATCC 15769 = assay: MIC99 by REMA; assay type: cell-based
M. marinum Strain M [1] = assay: MIC99 by REMA; assay type: cell-based, Mycobacterium marinum
M. tuberculosis H37Rv [2] = assay: MIC by resazurin reduction microplate assay (REMA); assay type: cell-based, Mycobacterium tuberculosis
M. abscessus 2005-0524 = assay: MIC99 by REMA; assay type: cell-based
[3] = system: M. tuberculosis clinical isolate 6412; assay: Drug susceptibility testing on solid Löwenstein-Jensen medium; assay type: cell-based; conditions: Mycobacterium tuberculosis
[4] = system: M. tuberculosis clinical isolate 6341; assay: as above; assay type: cell-based; conditions: Mycobacterium tuberculosis
M. smegmatis mc^2155 = assay: MIC99 by REMA; assay type: cell-based, Mycobacterium smegmatis
M. marinum strain M [5] = assay type: in vivo, zebrafish (Danio rerio); conditions: zebrafish, in vivo
M. massiliense 2005-0484 = assay: MIC99 by REMA; assay type: cell-based
zebrafish embryos = assay type: in vivo, zebrafish (Danio rerio); conditions: zebrafish, in vivo
Procedure: On examination of infected zebrafish embryos treated with BTZ043 it was observed that the compound affected embryo development (Fig 6A–G) especially at concentrations above 25 nM. […] These defects were also observed when uninfected embryos were exposed to BTZ043.
Figure 6 Effect of BTZ043 on M. marinum infected zebrafish embryo development. A–D M. marinum infected zebrafish embryos were treated with BTZ043 for 5 days at the concentrations indicated and photographed using a Leica DFC420C camera. The M strain was used for infection. E–F Images of the notochord from untreated and treated zebrafish, arrows indicate developmental abnormalities. G Analysis of zebrafish embryos displaying developmental abnormalities treated with BTZ043 (BTZ) or PBTZ169 (PBTZ) at the concentrations indicated.

M. tuberculosis H37Rv [6] = assay: Drug susceptibility testing on solid Löwenstein-Jensen medium; assay type: cell-based; conditions: Mycobacterium tuberculosis, H37RV
[7] = system: M. tuberculosis clinical isolate 6448; assay: as above; assay type: cell-based; conditions: Mycobacterium tuberculosis
[8] = system: M. tuberculosis clinical isolate 7384; assay: as above; assay type: cell-based; conditions: Mycobacterium tuberculosis
[9] = system: M. tuberculosis clinical isolate 6374; assay: as above; assay type: cell-based; conditions: Mycobacterium tuberculosis
M. tuberculosis H37Rv [10] = assay type: in vivo, BALB/c mice; conditions: mouse, in vivo
in vivo = conditions: mouse, in vivo
Procedure: Table S5. Principal pharmacokinetic properties1
1 See Figure S5 for primary data.
Compound levels were measured in serum from individual female mice (3/time point) that had received a single dose of 25 mg/kg. Maximum concentration (Cmax); area under the curve (AUC); apparent clearance.
Comparative pharmacokinetic analysis. After receiving a single dose
(25 mg/kg) of PBTZ169 or BTZ043 by gavage, groups of three female mice were sacrificed at the times indicated, blood was obtained by cardiac puncture and the drug levels in serum determined by LC-MS/MS technique (limit of quantification 10 μg/L).

M. bolletii 1999-0888 = assay: MIC99 by REMA; assay type: cell-based
[11] = target: T1, purified recombinant M. smegmatis NfnB (Mycolicibacterium smegmatis, UniProt A0R6D0); assay: NfnB-mediated nitroreduction followed by LC-MS; assay type: biochemical
T1 construct: made in house
T1 sequence (A0R6D0 whole entry): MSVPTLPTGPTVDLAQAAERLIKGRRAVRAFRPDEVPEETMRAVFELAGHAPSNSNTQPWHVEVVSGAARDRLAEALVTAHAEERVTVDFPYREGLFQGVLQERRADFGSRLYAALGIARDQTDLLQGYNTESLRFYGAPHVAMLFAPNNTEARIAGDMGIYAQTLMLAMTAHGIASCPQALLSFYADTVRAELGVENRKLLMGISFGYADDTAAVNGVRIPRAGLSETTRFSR

[12] = system: M. tuberculosis clinical isolate 5253; assay: Drug susceptibility testing on solid Löwenstein-Jensen medium; assay type: cell-based; conditions: Mycobacterium tuberculosis
[13] = system: M. tuberculosis clinical isolate 5055; assay: as above; assay type: cell-based; conditions: Mycobacterium tuberculosis
M. bovis BCG Pasteur = assay: microbe, parasite or virus in culture; assay type: cell-based, Mycobacterium bovis BCG
C. diphtheriae DSM 44123 = assay: MIC99 by REMA; assay type: cell-based, Corynebacterium diphtheriae
[14] = mouse
in vitro [15] = conditions: human, microsomes
C. glutamicum ATCC 13032 = assay: MIC99 by REMA; assay type: cell-based, Corynebacterium glutamicum
M. marinum strain E11 = assay: Zebrafish embryo infection model, M. marinum strain E11; conditions: 25 nM for 5, 4 or 3 days
Procedure: The number of colony forming units (CFU) per embryo was determined and compared to the level of fluorescence.
Zebrafish embryos were infected with either M. marinum strain M (A, B) or E11 (C, D). […] The bacterial burden was assessed by fluorescence microscopy and customized software to quantify the number of fluorescent pixels (A and C), and by enumeration of the CFU in lysed embryos (B and D), immediately after imaging was performed. In B and D, each data point represents the mean number of CFU per embryo of 3 embryo extracts plated, the bars indicate means and s.e.m. after log transformation. […]
Volumes of 1 nl of bacterial suspension, containing 50-200 CFU were injected into the caudal vein of embryonic zebrafish at approximately 28 h post fertilization. At 5 days post infection, embryos were monitored using fluorescence microscopy (Leica MZ16FA). Brightfield and fluorescent images were generated with a Leica DFC420C camera and subsequently fluorescent images were analyzed with customized software to quantify infection levels.
Twelve infected embryos were incubated at 28°C in petri dishes of 4 cm diameter containing 4 ml sterilized egg water (60 μg/ml instant ocean sea salts) with 0.003% 1-phenyl-2-thiourea (Sigma) to prevent melanization. All drug treatment experiments were performed in egg water containing 1% DMSO and analyzed at 5 days post infection (dpi). […]

M. vaccae ATCC 15483 = assay: MIC99 by REMA; assay type: cell-based
[16] = system: M. tuberculosis clinical isolate 6418; assay: Drug susceptibility testing on solid Löwenstein-Jensen medium; assay type: cell-based; conditions: Mycobacterium tuberculosis
M. smegmatis GM22 = assay: microbe, parasite or virus in culture; assay type: cell-based; conditions: for MIC99: M. smegmatis GM22, overproduces NfnB nitroreductase
M. tuberculosis DprE1 = M. tuberculosis DprE1 (Mycobacterium tuberculosis, UniProt P9WJF1); assay: DprE1 inhibition, two step peroxidase-coupled assay with Amplex Red; assay type: biochemical
Sequence of M. tuberculosis DprE1 (P9WJF1 whole entry, looked up): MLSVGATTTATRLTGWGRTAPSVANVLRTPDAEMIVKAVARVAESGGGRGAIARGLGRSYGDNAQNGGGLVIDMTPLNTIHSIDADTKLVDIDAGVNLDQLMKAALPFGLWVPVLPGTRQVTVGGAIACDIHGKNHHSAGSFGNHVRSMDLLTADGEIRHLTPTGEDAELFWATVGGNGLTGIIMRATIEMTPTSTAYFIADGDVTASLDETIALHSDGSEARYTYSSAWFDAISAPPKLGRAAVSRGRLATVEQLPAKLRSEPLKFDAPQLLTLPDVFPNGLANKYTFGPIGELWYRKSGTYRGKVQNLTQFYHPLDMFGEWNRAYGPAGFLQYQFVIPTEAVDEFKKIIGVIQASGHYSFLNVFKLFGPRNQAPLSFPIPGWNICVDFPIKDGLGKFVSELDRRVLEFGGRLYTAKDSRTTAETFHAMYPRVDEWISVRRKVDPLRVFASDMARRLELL

M. tuberculosis H37Rv [17] = assay: In vitro combination studies, REMA checkerboard; assay type: cell-based
M. bovis BCG BN2 = assay type: cell-based, Mycobacterium bovis BCG
[18] = human
M. tuberculosis MDR_CHUV = assay: MIC99 by REMA; assay type: cell-based, Mycobacterium tuberculosis
in vitro [19] = conditions: mouse, microsomes
[20] = system: M. tuberculosis clinical isolate 4328; assay: Drug susceptibility testing on solid Löwenstein-Jensen medium; assay type: cell-based; conditions: Mycobacterium tuberculosis
M. smegmatis MN84 = assay type: cell-based; conditions: M. smegmatis MN84, DprE1 Cys394Ser
M. smegmatis MN47 = assay type: cell-based; conditions: M. smegmatis MN47, DprE1 Cys394Gly
[21] = Mycobacterium tuberculosis, H37RV

## O=c1nc(N2CCN(CC3CCCCC3)CC2)sc2c([N+](=O)[O-])cc(C(F)(F)F)cc12 [PBTZ169]
M. avium ATCC 15769; Mycobacterium avium, ATCC15769
  MIC99: > 100 µg/mL
HepG2 human cell line; HepG2 cytotoxicity relative to MIC
  selectivity index: > 10 000
HepG2 human cell line; human
  TD99: > 200 µg/mL
M. marinum Strain M [1]; Mycobacterium marinum
  MIC99: 0.0003 µg/mL (≈ 0.000657 µM)
M. tuberculosis H37Rv [2]; [21]
  MIC: ≤ 0.00019 µg/mL
  MIC99: 0.0003 µg/mL (≈ 0.000657 µM)
M. tuberculosis H37Rv [2]; Mycobacterium tuberculosis, H37RV, read-out: MIC M. tuberculosis
  MIC: ≤ 0.00019 µg/mL
M. abscessus 2005-0524; Mycobacteroides abscessus, 20050524
  MIC99: > 100 µg/mL
[3]
  MIC: 0.031 µg/mL (≈ 0.0679 µM)
[4]
  MIC: 0.031 µg/mL (≈ 0.0679 µM)
M. smegmatis mc^2155; Mycolicibacterium smegmatis, MC^2155
  MIC99: 0.0007 µg/mL (≈ 0.00153 µM)
M. marinum strain M [5]
  bacterial burden in infected zebrafish embryos (fluorescence): almost no bacteria were present
  decrease in number of CFU per embryo: about 3 log units
  effect on the infection in zebrafish embryos: no significant effect
M. massiliense 2005-0484; Mycobacteroides abscessus, 20050484
  MIC99: > 100 µg/mL
Zebrafish embryos
  developmental defects in zebrafish embryos (in words): no developmental defects were seen
M. tuberculosis H37Rv [6]
  MIC: 0.031 µg/mL (≈ 0.0679 µM)
[7]
  MIC: 0.063 µg/mL (≈ 0.138 µM)
[8]
  MIC: 0.063 µg/mL (≈ 0.138 µM)
[9]
  MIC: 0.063 µg/mL (≈ 0.138 µM)
M. tuberculosis H37Rv [10]
  activity in dose escalation study (in words): active at all the concentrations tested
  reduction of CFU in the lungs in comparison to BTZ043 at the same dose: > 0.5 log
  reduction of bacterial burden in the spleens, fold more than BTZ043: 10 fold
In vivo; female
  time the serum level remains well above MIC: > 21 h
In vivo; female, po, 25 mg/kg
  Cmax: 1850 ng/mL
  half-life: 1.85 h
  k el: 0.000104 s⁻¹
In vivo; po, 25 mg/kg
  AUC: 193487 µg·min/L
M. bolletii 1999-0888; Mycobacteroides abscessus, 19990888
  MIC99: > 100 µg/mL
[11]
  NfnB-mediated reduction, species found by LC-MS: the major species found in the LC-MS analysis was the original nitro form
[12]
  MIC: 0.063 µg/mL (≈ 0.138 µM)
[13]
  MIC: 0.063 µg/mL (≈ 0.138 µM)
M. bovis BCG Pasteur; Mycobacterium tuberculosis variant bovis BCG, BCG
  MIC99: 0.0006 µg/mL (≈ 0.00131 µM)
C. diphtheriae DSM 44123; Corynebacterium diphtheriae, DSM44123
  MIC99: 0.003 µg/mL (≈ 0.00657 µM)
[14]
  clearance on incubation with microsomes (in words): medium clearance values
In vitro [15]
  microsomal CLint: 24.8 µL/min/mg
C. glutamicum ATCC 13032; Corynebacterium glutamicum, ATCC13032
  MIC99: 0.013 µg/mL (≈ 0.0285 µM)
M. marinum strain E11
  decrease in number of CFU per embryo: ~2 log units
M. vaccae ATCC 15483; Mycolicibacterium vaccae, ATCC15483
  MIC99: > 100 µg/mL
[16]
  MIC: 0.063 µg/mL (≈ 0.138 µM)
M. smegmatis GM22; Mycolicibacterium smegmatis, GM22, read-out: MIC for GM22
  MIC: 0.005 µg/mL (≈ 0.011 µM)
M. smegmatis GM22; Mycolicibacterium smegmatis, read-out: MIC99
  MIC99: 0.003 µg/mL (≈ 0.00657 µM)
M. tuberculosis DprE1
  concentration giving full inhibition of DprE1: 5 µM
M. tuberculosis H37Rv [17]
  ΣFIC (sum of the fractional inhibitory concentrations): 0.5
M. bovis BCG BN2
  MIC99: >100 µg/mL
  fold increased resistance conferred by the Cys387Ser mutation in DprE1: > 10 000 fold
[18]
  clearance on incubation with microsomes (in words): medium clearance values
M. tuberculosis MDR_CHUV; Mycobacterium tuberculosis
  MIC99: 0.0004 µg/mL (≈ 0.000876 µM)
In vitro [19]
  microsomal CLint: 24.3 µL/min/mg
[20]
  MIC: 0.063 µg/mL (≈ 0.138 µM)

## moxifloxicin [MXF]
M. avium ATCC 15769
  MIC99: 0.47 µg/mL
M. marinum Strain M [1]
  MIC99: 0.1 µg/mL
M. tuberculosis H37Rv [2]
  MIC99: 0.03 µg/mL
M. abscessus 2005-0524
  MIC99: 0.78 µg/mL
M. smegmatis mc^2155
  MIC99: 0.06 µg/mL
M. massiliense 2005-0484
  MIC99: 0.96 µg/mL
M. bolletii 1999-0888
  MIC99: 0.94 µg/mL
M. bovis BCG Pasteur
  MIC99: 0.02 µg/mL
C. diphtheriae DSM 44123
  MIC99: 0.02 µg/mL
C. glutamicum ATCC 13032
  MIC99: 0.31 µg/mL
M. smegmatis MN84
  MIC99: 0.06 µg/mL
M. vaccae ATCC 15483
  MIC99: 0.63 µg/mL
M. smegmatis GM22
  MIC99: 0.06 µg/mL
M. smegmatis MN47
  MIC99: 0.06 µg/mL
M. bovis BCG BN2
  MIC99: 0.03 µg/mL
M. tuberculosis MDR_CHUV
  MIC99: 0.03 µg/mL
